Results reported in patent publication US20250018048A1, “FLUCONAZOLE-COX INHIBITOR HYBRIDS: A DUAL-ACTING CLASS OF ANTIFUNGAL AZOLES” (Ramot at Tel-Aviv University Ltd., priority 2022, published 2025).
≈ marks a conversion by molar mass, not a printed value.

What was measured:
Assay type in all cases: cell-based
C. guilliermondii T-47 = experiment: MIC80 broth double-dilution assay; conditions: YPAD medium, 30° C., 24 h
Protocol: (§1) The antifungal activities of the 24 azole-COX inhibitor hybrids were evaluated against a panel of 16 representative strains of different species of the genus Candida. Candida species cause both superficial and systemic infections. The panel included strains of C. albicans, C. glabrata, C. parapsilosis, C. tropicalis, C. guilliermondii, C. dubliniensis, and C. auris (Table S2). To evaluate antifungal activity, the minimal inhibitory concentration 80% (MIC80) values were determined, which were defined as the lowest drug concentrations with turbidity (measured at OD600) less than or equal to that of specific 1:5 dilutions of the growth control. As controls, FLC and VOR, were tested.
(§2) C. albicans, C. glabrata, C. parapsilosis, C. guilliermondii, C. tropicalis, and C. dubliniensis MICs were determined using CLSI M27-A3 guidelines with minor modifications. Starter cultures were streaked from glycerol stock onto YPAD agar plates and grown for 24 h at 30° C. Colonies were suspended in 1 mL PBS and diluted to 1×10^−3 OD600 and then diluted 1:100 into fresh medium. Hybrids dissolved in DMSO were added to YPAD broth (32 μL stock solution in 1218 μL of YPAD broth), and serial double dilutions of hybrids in YPAD were prepared in flat-bottomed 96-well microplates (Corning) to enable testing of concentrations ranging from 64 μg/mL to 0.003 μg/mL. Control wells with yeast cells but no drug and blank wells containing only YPAD were prepared. An equal volume (100 μL) of yeast suspensions in YPAD broth was added to each well with the exceptions of the blank wells. MIC values (Tables S4-S6) were determined after 24 h at 30° C. by measuring the OD600 using a plate reader (Infinite M200 PRO, Tecan). MIC values were defined as the point at which the OD600 was reduced by >80% compared to the no-drug wells. Each concentration was tested in triplicate, and results were confirmed by two independent sets of experiments. FLC and VOR were used as control drugs.

C. albicans SN152 = experiment: MIC80 broth double-dilution assay; conditions: YPAD medium, 30° C., 24 h; parent strain of the erg11ΔΔ/erg3ΔΔ mutant
Protocol: as §1
(§3) MIC80 values were determined using the broth microdilution method over a concentration range of 0.003-64 μg/mL. Orange circles represent C. albicans strains, yellow circles represent C. glabrata strains, and green circles represent C. parapsilosis, C. tropicalis, C. dubliniensis and C. auris. Cells were grown in YPAD medium at 30° C. (For C. auris strains 37° C.) 24 h. Each concentration was tested in triplicate, and results were confirmed in at least two independent experiments.
(§4) The clinically used FLC and VOR act primarily by preventing ergosterol biosynthesis via inhibition of CYP51. Analysis was done to determine whether fungal growth inhibition by the hybrids required the presence of the ERG11 gene that encodes for CYP51. The antifungal activities of hybrids 1 and 5 and of FLC and VOR were determined against an erg11ΔΔ/erg3ΔΔ mutant C. albicans strain and against C. albicans SN152 from which this double knockout strain was derived (Table S2). […] Yeast growth was followed at OD600 over 48 h in 96-well plates containing serial double dilutions of the tested hybrids.
as §2

[1] = system: C. parapsilosis ATCC 22019; experiment: MIC80 broth double-dilution assay; conditions: YPAD medium, 30° C., 24 h
Protocol: as §1, §3, §2

C. dubliniensis T-99 = experiment: MIC80 broth double-dilution assay; conditions: YPAD medium, 30° C., 24 h
Protocol: as §1, §3, §2

C. tropicalis 660 = experiment: MIC80 broth double-dilution assay; conditions: YPAD medium, 30° C., 24 h
Protocol: as §1, §3, §2

C. albicans ATCC 90028 = experiment: MIC80 broth double-dilution assay; conditions: YPAD medium, 30° C., 24 h
Protocol: as §1, §3, §2

C. albicans ATCC 24433 = experiment: MIC80 broth double-dilution assay; conditions: YPAD medium, 30° C., 24 h
Protocol: as §1, §3, §2

C. albicans SC5314 = experiment: MIC80 broth double-dilution assay; conditions: YPAD medium, 30° C., 24 h
Protocol: as §1, §3, §2

C. albicans P-87 = experiment: MIC80 broth double-dilution assay; conditions: YPAD medium, 30° C., 24 h
Protocol: as §1, §3, §2

[2] = system: C. albicans 742 (erg11ΔΔ/erg3ΔΔ mutant C. albicans strain); experiment: MIC80 broth double-dilution assay, strain lacking CYP51; conditions: YPAD medium, 30° C., 24 h; erg11ΔΔ/erg3ΔΔ mutant lacking CYP51
Protocol: as §1, §4, §2

| Structure (SMILES) | MIC80 against C. guilliermondii T-47 (C. guilliermondii T-47) [µg/mL] | MIC80 against C. albicans SN152 (C. albicans SN152) [µg/mL] | MIC80 against C. parapsilosis 22019 [1] [µg/mL] | MIC80 against C. dubliniensis T-99 (C. dubliniensis T-99) [µg/mL] | MIC80 against C. tropicalis 660 (C. tropicalis 660) [µg/mL] | MIC80 against C. albicans 90028 (C. albicans ATCC 90028) [µg/mL] | MIC80 against C. albicans 24433 (C. albicans ATCC 24433) [µg/mL] | MIC80 against C. albicans SC5314 (C. albicans SC5314) [µg/mL] | MIC80 against C. albicans P-87 (C. albicans P-87) [µg/mL] | MIC80 against C. albicans 742 [2] [µg/mL] |
| --- | --- | --- | --- | --- | --- | --- | --- | --- | --- | --- |
| CC(C)Cc1ccc([C@H](C)C(=O)NC[C@@](O)(Cn2cncn2)c2ccc(F)cc2F)cc1 [Hybrid 4] | 16 (≈ 36.2 µM) | 1 (≈ 2.26 µM) | 8 (≈ 18.1 µM) | 0.03 (≈ 0.0678 µM) | >64 | 1 (≈ 2.26 µM) | 2 (≈ 4.52 µM) | 1 (≈ 2.26 µM) | 0.5 (≈ 1.13 µM) | >64 |
| C[C@@H](C(=O)NC[C@](O)(Cn1cncn1)c1ccc(F)cc1F)c1ccc(-c2ccccc2)c(F)c1 [Hybrid 6] | 2 (≈ 4.16 µM) | 0.06 (≈ 0.125 µM) | 2 (≈ 4.16 µM) | 2 (≈ 4.16 µM) | 8 (≈ 16.6 µM) | 0.12 (≈ 0.25 µM) | 0.12 (≈ 0.25 µM) | 0.03 (≈ 0.0624 µM) | 0.03 (≈ 0.0624 µM) | >64 |
| C[C@@H](C(=O)NC[C@@](O)(Cn1cncn1)c1ccc(F)cc1F)c1ccc(-c2ccccc2)c(F)c1 [Hybrid 7] | 32 (≈ 66.6 µM) | 8 (≈ 16.6 µM) | 8 (≈ 16.6 µM) | 0.5 (≈ 1.04 µM) | 64 (≈ 133 µM) | 8 (≈ 16.6 µM) | 16 (≈ 33.3 µM) | 4 (≈ 8.32 µM) | 4 (≈ 8.32 µM) | 64 (≈ 133 µM) |
| C[C@H](C(=O)NC[C@@](O)(Cn1cncn1)c1ccc(F)cc1F)c1ccc(-c2ccccc2)c(F)c1 [Hybrid 8] | 64 (≈ 133 µM) | 64 (≈ 133 µM) | 64 (≈ 133 µM) | 2 (≈ 4.16 µM) | >64 | 64 (≈ 133 µM) | >64 | 32 (≈ 66.6 µM) | 64 (≈ 133 µM) | >64 |
| COc1ccc2cc([C@H](C)C(=O)NC[C@](O)(Cn3cncn3)c3ccc(F)cc3F)ccc2c1 [Hybrid 9] | 2 (≈ 4.29 µM) | 0.012 (≈ 0.0257 µM) | 1 (≈ 2.14 µM) | 4 (≈ 8.57 µM) | 2 (≈ 4.29 µM) | 0.25 (≈ 0.536 µM) | 0.5 (≈ 1.07 µM) | 0.25 (≈ 0.536 µM) | 0.25 (≈ 0.536 µM) | 64 (≈ 137 µM) |
| COc1ccc2cc([C@@H](C)C(=O)NC[C@@](O)(Cn3cncn3)c3ccc(F)cc3F)ccc2c1 [Hybrid 11] | 8 (≈ 17.1 µM) | 0.5 (≈ 1.07 µM) | 4 (≈ 8.57 µM) | 8 (≈ 17.1 µM) | 8 (≈ 17.1 µM) | 1 (≈ 2.14 µM) | 1 (≈ 2.14 µM) | 0.5 (≈ 1.07 µM) | 1 (≈ 2.14 µM) | >64 |
| COc1ccc2cc([C@H](C)C(=O)NC[C@@](O)(Cn3cncn3)c3ccc(F)cc3F)ccc2c1 [Hybrid 12] | 32 (≈ 68.6 µM) | 2 (≈ 4.29 µM) | 4 (≈ 8.57 µM) | 32 (≈ 68.6 µM) | >64 | 4 (≈ 8.57 µM) | 4 (≈ 8.57 µM) | 2 (≈ 4.29 µM) | 4 (≈ 8.57 µM) | >64 |
| C[C@H](C(=O)NC[C@](O)(Cn1cncn1)c1ccc(F)cc1F)c1cccc(C(=O)c2ccccc2)c1 [Hybrid 13] | 32 (≈ 65.2 µM) | 2 (≈ 4.08 µM) | 8 (≈ 16.3 µM) | 64 (≈ 130 µM) | 16 (≈ 32.6 µM) | 2 (≈ 4.08 µM) | 4 (≈ 8.15 µM) | 2 (≈ 4.08 µM) | 4 (≈ 8.15 µM) | >64 |
| C[C@@H](C(=O)NC[C@](O)(Cn1cncn1)c1ccc(F)cc1F)c1cccc(C(=O)c2ccccc2)c1 [Hybrid 14] | 16 (≈ 32.6 µM) | 0.5 (≈ 1.02 µM) | 8 (≈ 16.3 µM) | 4 (≈ 8.15 µM) | 16 (≈ 32.6 µM) | 1 (≈ 2.04 µM) | 1 (≈ 2.04 µM) | 1 (≈ 2.04 µM) | 1 (≈ 2.04 µM) | >64 |
| C[C@@H](C(=O)NC[C@@](O)(Cn1cncn1)c1ccc(F)cc1F)c1cccc(C(=O)c2ccccc2)c1 [Hybrid 15] | >64 | >64 | >64 | 16 (≈ 32.6 µM) | >64 | >64 | >64 | >64 | >64 | >64 |
| C[C@H](C(=O)NC[C@@](O)(Cn1cncn1)c1ccc(F)cc1F)c1cccc(C(=O)c2ccccc2)c1 [Hybrid 16] | >64 | >64 | >64 | 16 (≈ 32.6 µM) | >64 | >64 | >64 | >64 | >64 | >64 |
| O=C(NC[C@@](O)(Cn1cncn1)c1ccc(F)cc1F)c1cccnc1Nc1cccc(C(F)(F)F)c1 [Hybrid 18] | >64 | 8 (≈ 15.4 µM) | 8 (≈ 15.4 µM) | 16 (≈ 30.9 µM) | >64 | 16 (≈ 30.9 µM) | 8 (≈ 15.4 µM) | 16 (≈ 30.9 µM) | 16 (≈ 30.9 µM) | 64 (≈ 123 µM) |
| O=C(NC[C@@](O)(Cn1cncn1)c1ccc(F)cc1F)c1cc(-c2ccc(F)cc2F)ccc1O [Hybrid 20] | >64 | 8 (≈ 16.4 µM) | 8 (≈ 16.4 µM) | 0.5 (≈ 1.03 µM) | >64 | 16 (≈ 32.9 µM) | 16 (≈ 32.9 µM) | 8 (≈ 16.4 µM) | 8 (≈ 16.4 µM) | 32 (≈ 65.8 µM) |
